Experimental data from patent publication US12612424B2, “HPK1 inhibitors and uses thereof” (Regor Pharmaceuticals, Inc., priority 2019, dated 2026).
Where two headings read alike, the source gives them in different places.

Columns and labels:
[1] = system: Human Pan T Cell (IL-2 release); experiment: IL2 released by human pan T cell upon anti-CD3/anti-CD28 stimulation (ELISA); type: cell-based; details: human pan T cells; for maximal fold induction: 48 h, response of IL-2 over DMSO control, anti-CD3/anti-CD28, 48 hours, ELISA, read-out: IL-2 Max Fold Response
Description: For example, Example 5 describes such a functional assay for determining the effect of an HPK1 inhibitor on IL-2 & IFN-γ release upon stimulation of Pan T cells. The secreted IL-2 & IFN-γ can be measured/quantified by standard ELISA assay. Briefly, pan T cells can be isolated from peripheral blood (PB) mononuclear cells (MNCs), or PBMC, using commercially available kits, such as MACS (Miltenyl Biotec) Pan T isolation kit (Cat. No. 130-096-535). Primary human pan-T cells include CD4 and CD8 T cells as well as some gamma/delta T cell subsets. The pan-T cells can be isolated using the negative immunomagnetic separation technique without the use of columns.
Isolated pan-T cells can be dispensed into 96-well plates at 100,000 cells/well, and stimulated with immobilized anti-CD3 antibody and soluable anti-CD28 antibody, or PMA/Ionomycin as the positive control (or culture media as the negative control). Different concentrations of test compounds can be added to the cells to assess the compound effect on cytokine secretion following TCR-stimulation/CD28 co-stimulation. Stimulated cells are incubated for 2 more days, before the supernatant (containing secreted cytokines by pan-T cells) is collected from each well for ELISA assay and quantitation of IL-2 and IFN-γ.
Biology Example 8 Compound Efficacy Study on IL2 & IFN-γ Released by Human Pan T Cell
This example is an assay method that can be used to determine compound effects on IL2 & IFN-γ release using pan T cells and ELISA assay format.
3. Procedures Procedures for Pan T isolation and Reagent preparation (Day 0): 1. Cell Growth Medium: • RPMI1640: ATCC, Cat #30-2001 • 10% FBS: Gibco, Cat #10099141 • 1% Pen-Strep: Gibco, Cat #15140122 • 1% Non-essential amino: Gibco, Cat #11140050 • Beta-Mercaptoethanol: Gibco, Cat #21985023 2. Pan T Isolation Buffer Preparation:
Prepare a solution containing phosphate-buffered saline (PBS), pH 7.2, 0.5% bovine serum albumin (BSA), and 2 mM EDTA by diluting MACS® BSA Stock Solution (#130-091-376) 20 times with autoMACS® Rinsing Solution. Keep buffer at 4° C. Degas buffer before use, as air bubbles could block the column.
3. Thawing of Frozen PBMC • 1) Pre-heat medium at 37° C. water bath. • 2) Rapidly thaw cells in 37° C. water bath. • 3) Add the pre-warmed medium into 15 mL tube. Transfer cells to the tube. • 4) 300×g centrifuge for 8 min. (centrifuge increase 0, decrease 0). • 5) Wash the PBMC using Rinsing buffer. • 6) Centrifuge PBMC at 300×g for 8 min, wash it twice (centrifuge increase 9, decrease 1). • 7) Resuspend the cells with Pan T cells isolation buffer and count cells number. 4. Pan T Cells Isolation: Cell Staining with Microbead Cocktail • 1) Prepare cells and determine cell number. Filter cells by 70 μm cell strainer. • 2) Resuspend cell pellet in 40 μL of buffer per 10^7 total cells. • 3) Add 10 μL of Pan T Cell Biotin-Antibody Cocktail per 10^7 total cells. • 4) Mix well and incubate for 10 minutes in the refrigerator (ice). • 5) Add 30 μL of buffer per 10^7 total cells. • 6) Add 20 μL of Pan T Cell MicroBead Cocktail per 10^7 total cells. • 7) Mix well and incubate for 15 minutes in the refrigerator (ice). • 8) Proceed to subsequent magnetic cell separation. • Note: a. Work fast, keep cells cold, and use pre-cooled solutions (2-8° C.). b. Volumes for magnetic labeling given are for up to 10′ total cells. When working with fewer cells, use the same volumes as indicated. c. When working with higher cell numbers, scale up all reagent volumes and total volumes accordingly. d. For optimal performance it is important to obtain a single-cell suspension before magnetic labeling. Subsequent Manual Cell Separation: • 1) Place LS Column in the magnetic field of a suitable MACS Separator. For details refer to the respective MACS Column data sheet. • 2) Prepare column by rinsing with 3 mL of buffer. • 3) Apply cell suspension onto the column. Collect flow-through, which represents the enriched T cells. • 4) Wash column with 5 mL of buffer. […]

HPK1 = HPK1 (Homo sapiens, UniProt Q92918); experiment: HPK1 biochemical assay (ADP-GLO Kinase Assay)
HPK1, sequence (Q92918 whole entry): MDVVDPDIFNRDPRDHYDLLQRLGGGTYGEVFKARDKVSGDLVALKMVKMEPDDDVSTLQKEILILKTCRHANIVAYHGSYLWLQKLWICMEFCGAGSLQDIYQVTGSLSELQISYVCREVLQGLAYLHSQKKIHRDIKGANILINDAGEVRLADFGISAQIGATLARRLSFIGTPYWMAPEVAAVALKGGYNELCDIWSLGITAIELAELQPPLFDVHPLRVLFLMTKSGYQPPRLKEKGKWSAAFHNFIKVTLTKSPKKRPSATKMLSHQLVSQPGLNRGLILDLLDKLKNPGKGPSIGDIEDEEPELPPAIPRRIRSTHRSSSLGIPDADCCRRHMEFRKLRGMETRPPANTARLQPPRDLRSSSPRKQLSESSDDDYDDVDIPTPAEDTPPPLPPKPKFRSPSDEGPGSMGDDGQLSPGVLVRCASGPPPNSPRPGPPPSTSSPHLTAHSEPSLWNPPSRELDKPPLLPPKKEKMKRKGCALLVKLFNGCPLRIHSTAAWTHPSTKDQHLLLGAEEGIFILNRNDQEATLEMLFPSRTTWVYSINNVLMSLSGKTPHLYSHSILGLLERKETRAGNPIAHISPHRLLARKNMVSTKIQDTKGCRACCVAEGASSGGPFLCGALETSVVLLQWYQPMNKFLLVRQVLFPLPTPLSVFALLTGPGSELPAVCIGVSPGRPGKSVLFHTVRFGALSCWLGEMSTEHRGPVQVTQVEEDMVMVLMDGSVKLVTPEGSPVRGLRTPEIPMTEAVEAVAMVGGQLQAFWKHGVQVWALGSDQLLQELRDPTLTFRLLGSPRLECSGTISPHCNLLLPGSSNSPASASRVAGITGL
How it was run: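 HPK1 (0.6 ng/μL final) activity was followed with MBP substrate and 10 μM ATP in Tris pH 7.5/MgCl2/BSA/DTT buffer, measured by ADP-Glo luminescence. Compounds were tested as 3-fold dilutions from 10 μM. IC50 came from a three-parameter logistic fit, with inhibition normalised to high/low controls.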

JAK3 = biological target: T1, JAK3 (Homo sapiens, UniProt P52333); experiment: JAK3 biochemical assay (ADP-GLO Kinase Assay); details: for JAKs/HPK1 IC50 Ratio, B* / JAKs/HPK1 IC50 Ratio, N*: ratio of JAK3 IC50 to HPK1 IC50; for JAKs/HPK1 IC50 Ratio, B*: first testing facility; for JAKs/HPK1 IC50 Ratio, N*: second testing facility
T1 construct: purchased Thermo fisher PV3855
T1 sequence (P52333 781-1124 limits assumed): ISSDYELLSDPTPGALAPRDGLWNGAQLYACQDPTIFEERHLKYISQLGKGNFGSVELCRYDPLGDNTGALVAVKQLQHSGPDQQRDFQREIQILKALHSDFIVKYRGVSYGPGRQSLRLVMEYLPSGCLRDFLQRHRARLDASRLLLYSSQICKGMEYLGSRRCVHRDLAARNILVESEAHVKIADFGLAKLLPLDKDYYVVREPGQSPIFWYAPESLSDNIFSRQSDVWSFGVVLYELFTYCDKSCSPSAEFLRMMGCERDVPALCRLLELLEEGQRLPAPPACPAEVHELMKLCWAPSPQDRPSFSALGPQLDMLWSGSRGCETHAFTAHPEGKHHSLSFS
How it was run: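 Luminescent ADP-Glo readout after a 60 min, 25 °C reaction of JAK3 (0.78 ng) on Poly(E4Y1) (0.2 μg/μL) at 4 μM ATP, Tris pH 7.5 buffer with MgCl2, BSA and DTT. Compounds tested 10 μM down to 0.508 nM in 3-fold steps; % inhibition normalised to DMSO and reference-compound controls, IC50 from three-parameter fit.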

[2] = B*: testing performed in a first testing facility, read-out: HPK1 IC50 (nM) Relative, B*
[3] = B*: testing performed in a first testing facility, read-out: JAK3 IC50 (nM) Relative, B*
[4] = N*: testing performed in a second testing facility, read-out: HPK1 IC50 (nM) Relative, N*
[5] = N*: testing performed in a second testing facility, read-out: JAK3 IC50 (nM) Relative, N*

IC50 (HPK1; [2]) [nM] | EC50 ([1]; Homo sapiens, T-cell, IL-2 response, calculated with GraphPad Prism) [nM] | IC50 (JAK3; [3]) [nM] | JAKs/HPK1 IC50 Ratio, B* (JAK3) | IC50 (HPK1; [4]) [nM] | IC50 (JAK3; [5]) [nM] | JAKs/HPK1 IC50 Ratio, N* (JAK3) | SMILES | maximal fold induction ([1]; Homo sapiens, T-cell) | EC2x (nM) ([1]; concentration of compound that gives 200% IL-2 response (2 folds) over DMSO control)
≤ 100 | – | – | – | – | – | – | COc1cc2c(cc1Nc1ncc(Cl)c(-n3cc(F)c4ccccc43)n1)CN(C)CC2 [Example 11, N-(5-Chloro-4-(3-fluoro-1H-indol-1-yl)pyrimidin-2-yl)-6-methoxy-2-methyl-1,2,3,4-tetrahydroisoquinolin-7-amine] | < 2 | –
≤ 100 | > 1000 | – | – | – | – | – | COc1cc2c(cc1Nc1ncc(Cl)c(N3CCc4ccccc43)n1)CN(CCO)CC2 [Example 27] | > 2 | + (“+”, for greater than 1 μM)
100 to 500 | – | > 1000 | 11 | – | – | – | CCc1c[nH]c2ncc(-c3ccc(C(=O)OC)c(P(C)(C)=O)c3)cc12 [Example 72, Methyl 2-(dimethylphosphoryl)-4-(3-ethyl-1H-pyrrolo[2,3-b]pyridin-5-yl)benzoate] | – | –
≤ 100 | – | > 1000 | 737 | – | – | – | COc1cc2c(cc1Nc1ncc(Cl)c(N3CC(C(=O)O)C4(CCOCC4)C3)n1)CN(C)CC2 (stereo not shown) [Example 168] | – | –
100 to 500 | – | > 1000 | 10 | – | – | – | CCc1c[nH]c2ncc(-c3ccc(C(N)=O)c(P(C)(C)=O)c3)cc12 [Example 67, 2-(Dimethylphosphoryl)-4-(3-ethyl-1H-pyrrolo[2,3-b]pyridin-5-yl)benzamide] | – | –
500 to 1000 | – | > 1000 | 2 | – | – | – | CCc1c[nH]c2ncc(-c3cc(NC(C)=O)cc(P(C)(C)=O)c3)cc12 [Example 68, N-(3-(dimethylphosphoryl)-5-(3-ethyl-1H-pyrrolo[2,3-b]pyridin-5-yl)phenyl)acetamide] | – | –
100 to 500 | – | > 1000 | 77 | – | – | – | COc1cc2c(cc1Nc1ncc(Cl)c(N3CCC4(COC4)C3)n1)CN(C)CC2 [Example 170, N-(5-chloro-4-(2-oxa-6-azaspiro[3.4]octan-6-yl)pyrimidin-2-yl)-6-methoxy-2-methyl-1,2,3,4-tetrahydroisoquinolin-7-amine] | – | –
≤ 100 | – | > 1000 | >111 | – | – | – | COc1nc2c(cc1Nc1ncc(Cl)c(N3CC(C)(CC(=O)O)c4ccccc43)n1)CN(C)CC2 (stereo not shown) [Example 155] | – | –
100 to 500 | – | 500 to 1000 | 5 | – | – | – | CCc1c[nH]c2ncc(-c3ccc(CO)c(P(C)(C)=O)c3)cc12 [Example 73, (5-(3-Ethyl-1H-pyrrolo[2,3-b]pyridin-5-yl)-2-(hydroxymethyl)phenyl)dimethylphosphine oxide] | – | –
≤ 100 | – | ≤ 100 | 4 | – | – | – | COc1cc2c(cc1Nc1ncc(Cl)c(N3CC(C)(C(=O)O)c4ccccc43)n1)CNCC2 (stereo not shown) [Example 127, 1-(5-Chloro-2-((6-methoxy-1,2,3,4-tetrahydroisoquinolin-7-yl)amino)pyrimidin-4-yl)-3-methylindoline-3-carboxylic acid] | – | –
> 1000 | – | – | – | > 1000 | > 1000 | >10 | COc1cc2c(cc1Nc1ncc3ncn(-c4ccccc4C(=O)N(C)C)c3n1)CN(C)CC2 [Example 44, 2-(2-((6-Methoxy-2-methyl-1,2,3,4-tetrahydroisoquinolin-7-yl)amino)-9H-purin-9-yl)-N,N-dimethylbenzamide] | – | –
≤ 100 | – | > 1000 | >236 | – | – | – | CC(C)Oc1cc2c(cc1Nc1ncc(Cl)c(N3CC(C(=O)O)c4ccccc43)n1)CN(C)CC2 (stereo not shown) [Example 111, 1-(5-Chloro-2-((6-isopropoxy-2-methyl-1,2,3,4-tetrahydroisoquinolin-7-yl)amino)pyrimidin-4-yl)indoline-3-carboxylic acid] | – | –
≤ 100 | – | > 1000 | 800 | – | – | – | COc1cc2c(cc1Nc1ncc(Cl)c(-n3cc(CS(C)(=O)=O)c4ccccc43)n1)CN(C)CC2 [Example 82, N-(5-chloro-4-(3-((methylsulfonyl)methyl)-1H-indol-1-yl)pyrimidin-2-yl)-6-methoxy-2-methyl-1,2,3,4-tetrahydroisoquinolin-7-amine] | – | –
≤ 100 | – | > 1000 | 163 | ≤ 100 | > 1000 | 101 | CCc1c[nH]c2ncc(-c3ccc(C)c(P(C)(C)=O)c3)cc12 [Example 50, (5-(3-Ethyl-1H-pyrrolo[2,3-b]pyridin-5-yl)-2-methylphenyl)dimethylphosphine oxide] | – | –
